Molecular target: Bifunctional protein GlmU (Escherichia coli (strain K12), UniProt P0ACC7)
Test: Competitive inhibition of Acetyltransferase activity of Escherichia coli BL21(DE3) GlmU in presence of AcCoA

Bifunctional protein GlmU, sequence (P0ACC7 whole entry): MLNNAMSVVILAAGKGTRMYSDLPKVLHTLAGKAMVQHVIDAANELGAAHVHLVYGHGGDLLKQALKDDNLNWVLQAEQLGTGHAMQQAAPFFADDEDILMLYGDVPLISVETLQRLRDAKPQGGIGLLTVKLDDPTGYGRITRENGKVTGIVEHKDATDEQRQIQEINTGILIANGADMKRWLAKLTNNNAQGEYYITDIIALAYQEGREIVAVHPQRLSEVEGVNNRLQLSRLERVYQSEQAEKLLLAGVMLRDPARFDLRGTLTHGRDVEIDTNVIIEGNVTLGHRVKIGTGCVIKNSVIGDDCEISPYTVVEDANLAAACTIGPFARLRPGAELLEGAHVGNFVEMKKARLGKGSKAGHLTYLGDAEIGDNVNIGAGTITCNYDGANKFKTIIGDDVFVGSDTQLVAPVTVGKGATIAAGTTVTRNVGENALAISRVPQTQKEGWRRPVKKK

Compound	Ki [nM]
Nc1ccc(Nc2ccc(N)cc2S(=O)(=O)O)cc1 [5-amino-2-(4-aminophenylamino)benzenesulfonic acid]	17
O=S(=O)(Nc1ccc(S(=O)(=O)c2ccc(-c3ccc(S(=O)(=O)c4ccc(NS(=O)(=O)c5ccc(Cl)cc5)c(Cl)c4)cc3)cc2)cc1Cl)c1ccc(Cl)cc1 [Mac0008028]	404
O=C(CSc1nnc(SCC(=O)NCCSCc2ccco2)s1)NCCSCc1ccco1 [Mac0029665]	23
